Data taken from paper PMC2806525, “Proteinase-activated receptor-2 mediated inhibition of TNFα-stimulated JNK activation — A novel paradigm for Gq/11 linked GPCRs” (Cellular Signalling, 2010).
Entries after “also recorded” stand apart in the source; their conditions may differ. Blank lines part the entries; values can stand above or below the compound they belong to. Residues, ends and D or L forms follow the SMILES beside them.

Key:
[1] = tested on: TNFR1/TRADD; assay: TNFR1/TRADD complex formation (TNFR1 immuno-precipitation, TRADD immuno-blot), PAR2 expressing cells; type: cell-based, human; conditions: TNFα 10 ng/ml 30 min
Description: (§1) Human skin epithelial cells NCTC2544 were maintained in M199 medium with Earl's salt supplement, 10% (v/v) foetal calf serum, L-glutamine (27 µg/ml), penicillin (250 U/ml), and streptomycin (25 mg/ml). NCTC2544 cells stably expressing human PAR2 (clone G) were maintained in complete M199 medium containing 400 μg/ml of Geneticin for selection pressure and passaged using Versene (2% EDTA/PBS). EAhy-926 cells were produced by hybridizing human umbilical vein endothelial cells (HUVECs) with the epithelial cell line A549 [27] and maintained in Dulbecco's Modified Eagle's Medium (DMEM) supplemented with 10% foetal calf serum (FCS), hypoxanthine/aminopterin/thymidine (HAT supplement), penicillin (250 U/ml) and streptomycin (25 mg/ml), and cells were passaged using Versene.
Proteins were separated by 10% SDS–PAGE and transferred onto nitrocellulose. The membranes were blocked for non-specific binding for 2 h in 2% BSA (w/v) diluted in NATT buffer (50 mM Tris–HCl, 150 mM NaCl, 0.2% (v/v) Tween-20). The blots were then incubated overnight with 50 ng/ml primary antibody diluted in 0.2% BSA (w/v) in NATT buffer. The blots were washed with NATT buffer for 90 min and incubated with HRP-conjugated secondary antibody (20 ng/ml in 0.2% BSA (w/v) diluted in NATT buffer) for 2 h. After a further 90 min wash, the blots were subjected to ECL reagent and exposed to Kodak X-ray film.
(§2) For immuno-precipitation of TNFR1, equal amounts of pre-cleared cell lysates were incubated in Tris–HCl buffer, pH 7.4, containing 50 mM NaCl, 1 mM EDTA, 1 mM EGTA, 1% (w/v) Triton X-100, and 0.5% (w/v) Nonidet P-40, with 2 μg TNFR1 antibody, pre-coupled to protein G, for 3 h. Lysates were recovered by sequential washes in solubilisation buffer and in the same buffer lacking detergents. Precipitates were assessed for TRADD or RIP content using Western blotting.
Fig. 7 PAR2 mediated TNFR1 adapter protein disruption in PAR2 expressing cells. In Panel A, cells were pre-treated with peptide (100 μM) or vehicle prior to stimulation with TNFα (10 ng/ml) for 30 min. Lysates were immuno-precipitated for TNFR1 and immuno-blotted for TRADD and/or RIP, as outlined in the Methods section. In Panel B cells were pre-treated with 100 nM YM254890 or 3 μM GF109203X for 30 min prior to pre-treatment with peptide (100 μM), for 30 min, then incubated for a further 30 min with TNFα (10 ng/ml). TNFR1 immuno-precipitates were immuno-blotted for TRADD. Each gel is representative of at least three experiments.

[2] = tested on: TNFR1/RIP; assay: TNFR1/RIP complex formation (TNFR1 immuno-precipitation, RIP immuno-blot), PAR2 expressing cells; type: cell-based, human; conditions: TNFα 10 ng/ml 30 min, versus basal
Description: as §1
(§3) Proteins were separated by 10% SDS–PAGE and transferred onto nitrocellulose. The membranes were blocked for non-specific binding for 2 h in 2% BSA (w/v) diluted in NATT buffer (50 mM Tris–HCl, 150 mM NaCl, 0.2% (v/v) Tween-20). […]
as §2, with “Lysates were recovered by sequential washes in solubilisation buffer and in the same buffer lacking detergents.” left out, “blotting. […]” for “blotting.”

[3] = tested on: ERK; assay: ERK activation, PAR2 NCTC2544 cells; type: cell-based, human; conditions: response to TNFα; data not shown
Description: as §1

[4] = tested on: JNK; assay: TNFα-stimulated JNK phosphorylation and activity, PAR2 NCTC2544 cells; type: cell-based, human; conditions: TNFα 10 ng/ml 30 min, untreated cells
Description: as §1
Proteins were separated by 10% SDS–PAGE and transferred onto nitrocellulose. […]
To measure JNK activity, cells were stimulated as appropriate and the reaction terminated by rapid aspiration and the addition of ice-cold PBS. […] Phosphorylation of GST-c-Jun was then determined by autoradiography.
Fig. 6 Gq/11 is essential for PAR2 mediated inhibition of JNK activation by TNFα. […] Samples were assessed for phospho-JNK levels (Panels A and D) or JNK activity (Panel B) as outlined in the Methods section. Gels from JNK activity assays were quantified by densitometry (Panel C). […]

[5] = biological target: T1, human PAR2 (Homo sapiens, UniProt P55085); assay: TNFα-stimulated JNK activity (in vitro c-Jun phosphorylation), PAR2 agonist pre-incubation, PAR2 NCTC2544 cells (clone G); type: cell-based; conditions: 30 min pre-incubation, then TNFα 30 min, mean ± s.e.m, at least 4 experiments
T1 construct: expressed in transfected cells
T1 sequence (P55085 26-397): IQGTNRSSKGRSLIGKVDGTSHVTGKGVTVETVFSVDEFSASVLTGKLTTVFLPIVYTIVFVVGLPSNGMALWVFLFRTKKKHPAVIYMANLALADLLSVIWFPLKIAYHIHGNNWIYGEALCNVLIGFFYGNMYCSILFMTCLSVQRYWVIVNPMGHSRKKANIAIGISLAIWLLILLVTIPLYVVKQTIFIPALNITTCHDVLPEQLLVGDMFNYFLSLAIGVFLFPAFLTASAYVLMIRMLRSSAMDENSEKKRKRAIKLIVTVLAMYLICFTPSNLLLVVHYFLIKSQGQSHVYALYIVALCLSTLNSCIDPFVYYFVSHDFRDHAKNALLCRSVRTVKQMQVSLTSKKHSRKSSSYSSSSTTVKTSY
Description: as §1
To measure JNK activity, cells were stimulated as appropriate and the reaction terminated by rapid aspiration and the addition of ice-cold PBS. […] Phosphorylation of GST-c-Jun was then determined by autoradiography. […]
Fig. 1 PAR2 activation mediates inhibition of TNFα-stimulated JNK activity and phosphorylation in PAR2 NCTC2544 cells. […] Samples were assessed for JNK activity (Panel A) or phospho-JNK levels (Panel C) as outlined in the Methods section. Gels from JNK assays were quantified (Panel B). Each value represents the mean ± s.e.m from at least 4 experiments and data was quantified by densitometry. ⁎P < 0.05, ⁎⁎P < 0.01 compared to TNFα alone.
(§4) Fig. 4 Concentration response effects of PAR2 peptides for activation of JNK and inhibition of TNFα-stimulated JNK. PAR2 expressing NCTC2544 cells (clone G) were incubated with increasing concentrations of SLIGKV-OH or 2f-LIGKV-OH for 30 min and assayed for JNK activity (Panel B) or stimulated for a further 30 min with TNFα (+) before JNK activity was assessed (Panel A). Samples were assessed for JNK activity as outlined in the Methods section. Gels from JNK assays were quantified (Panel C). Each value represents the mean ± s.e.m from at least 4 experiments and data was quantified by densitometry.

[6] = biological target: T1, human PAR2; assay: JNK activity, agent alone, PAR2 NCTC2544 cells (clone G); type: cell-based; conditions: 30 min, no TNFα, mean ± s.e.m, at least 4 experiments
Description: as §1
To measure JNK activity, cells were stimulated as appropriate and the reaction terminated by rapid aspiration and the addition of ice-cold PBS. The cells were solubilised in 20 mM HEPES buffer, pH 7.7, containing 50 mM NaCl, 0.1 mM EDTA, 0.1 mM Na3VO4, 0.1 mM PMSF, 10 mg/ml aprotinin, 10 mg/ml leupeptin, and 1% (w/v) Triton X-100. Lysates were clarified by centrifugation for 5 min at 13,000 rpm and equal amounts of protein were incubated with 20 μg of GST-c-Jun-(5–89) immobilized on glutathione-Sepharose at 4 °C for 3 h. […] Phosphorylation of GST-c-Jun was then determined by autoradiography. […]
as §4

[7] = tested on: PKC; assay: TNFα-stimulated JNK activity, PKC activator / PKC inhibitor, PAR2 NCTC2544 cells; type: cell-based, human
Description: as §1
To measure JNK activity, cells were stimulated as appropriate and the reaction terminated by rapid aspiration and the addition of ice-cold PBS. The cells were solubilised in 20 mM HEPES buffer, pH 7.7, containing 50 mM NaCl, 0.1 mM EDTA, 0.1 mM Na3VO4, 0.1 mM PMSF, 10 mg/ml aprotinin, 10 mg/ml leupeptin, and 1% (w/v) Triton X-100. Lysates were clarified by centrifugation for 5 min at 13,000 rpm and equal amounts of protein were incubated with 20 μg of GST-c-Jun-(5–89) immobilized on glutathione-Sepharose at 4 °C for 3 h. Beads were then washed three times in solubilisation buffer and twice in 25 mM HEPES buffer, pH 7.6, containing 20 mM β-glycerophosphate, 0.1 mM NaV3O4, and 2 mM dithiothreitol. Precipitates were then incubated with the same buffer containing 25 μM/0.5 μCi of ATP/[γ-^32P] ATP in a final volume of 30 µl at 30 °C for 30 min. The reactions were terminated by the addition of 4× SDS-sample buffer and aliquots of each sample subjected to electrophoresis on 11% SDS-polyacrylamide gel electrophoresis. Phosphorylation of GST-c-Jun was then determined by autoradiography.
Where experimental data is shown as a blot, this represents one of at least 3 experiments and data represents the mean ± s.e.m. Statistical analysis was by one-way ANOVA with Dunnett's post test (*P < 0.05, **P < 0.01).
Fig. 5 Pharmacological blockade of protein kinase C reverses PAR2 mediated inhibition of TNFα-stimulated JNK activation. PAR2 expressing NCTC2544 cells (clone G) were pre-incubated with increasing concentrations of GF109203X (GFX) for 30 min then incubated for a further 30 min with 100 nM PMA (Panel A) or 30 nM trypsin (Panel B) prior to stimulation for a further 30 min with TNFα(+) (10 ng/ml). Samples were assessed for JNK activity (Panels A and B) or phospho-JNK levels (Panel D) as outlined in the Methods section. Gels from JNK activity assays were quantified by densitometry (Panel C). Each value represents the mean ± s.e.m from at least 4 experiments. ⁎⁎P < 0.01 compared to TNFα and trypsin stimulated.

[8] = tested on: PKC; assay: TNFα-stimulated JNK phosphorylation, PKC activator / PKC inhibitor, PAR2 NCTC2544 cells; type: cell-based, human; conditions: GF109203X 10 μM; trypsin or SLIGKV-OH; TNFα 10 ng/ml 30 min
Description: as §1, §3
Fig. 5 Pharmacological blockade of protein kinase C reverses PAR2 mediated inhibition of TNFα-stimulated JNK activation. […] Samples were assessed for JNK activity (Panels A and B) or phospho-JNK levels (Panel D) as outlined in the Methods section. Gels from JNK activity assays were quantified by densitometry (Panel C). […]

[9] = tested on: PKC isoforms; conditions: ref [40–42]; cited from earlier work
Excerpt: We then examined the potential signalling pathways which could be mediating the inhibitory effects of PAR2. PAR2 is coupled to a number of signalling pathways via G-protein dependent and independent mechanisms. […] Therefore, we tested the effect of the PKC inhibitor GF109203X on PAR2 mediated inhibition of JNK activity and phosphorylation. ... || We then sought to investigate the possible mechanisms by which PAR2 mediated inhibition of JNK might occur. […] This is typical of a number of keratinocyte cell type ...

Compound: tumour necrosis factor-α [TNFα]
- TRADD recovery with TNFR1 on stimulation ([1]; versus basal): marked increase in both TRADD and RIP recovery
- RIP recovery with TNFR1 on stimulation [2]: marked increase in both TRADD and RIP recovery
- ERK activation [3]: negligible
- TNFα stimulation of JNK phosphorylation and activity [4]: stimulated JNK phosphorylation and activity as expected

- IC50 ([5]; densitometry, read-out: IC50, inhibition of TNFα-stimulated JNK activity): 6.24 ± 1.32 µM
- % inhibition of TNFα-stimulated JNK activity ([5]; maximal efficacy comparison): 93.567 ± 6.882%
- EC50 ([6]; densitometry, read-out: EC50, stimulation of JNK activity by peptide alone): 10.1 ± 3.3 µM
- % stimulation of JNK activity alone ([6]; maximal efficacy comparison): 43.950 ± 6.482%
Compound: CC[C@H](C)[C@H](NC(=O)[C@H](CC(C)C)NC(=O)[C@@H](N)CO)C(=O)NCC(=O)N[C@@H](CCCCN)C(=O)N[C@H](C(=O)O)C(C)C [SLIGKV-OH] (H-SLIGKV-OH)

Compound: CN(C)CCCn1cc(C2=C(c3c[nH]c4ccccc34)C(=O)NC2=O)c2ccccc21 [GF109203X]
- reversal of PAR2 mediated inhibition of JNK activity by PKC inhibitor ([7]; GF109203X 10 μM (maximal concentration), trypsin 30 nM or SLIGKV-OH, TNFα 10 ng/ml 30 min): reversed the inhibitory effect of trypsin and SLIGKV-OH on TNFα-stimulated JNK activation
- reversal of PAR2 mediated JNK inhibition by PKC inhibitor, general statement ([7]; abstract / discussion): the effects of both agents were reversed; also recorded: good reversal of PAR2 mediated inhibition
- reversal of PMA effect on TNFα-stimulated JNK activity ([7]; micromolar concentrations GF109203X 30 min, 100 nM PMA 30 min, TNFα 10 ng/ml 30 min): reversed by micromolar concentrations
- reversal of PAR2 mediated inhibition of JNK phosphorylation by PKC inhibitor [8]: reversed the inhibitory effect
- reversal of PAR2 mediated disruption of TNFR1/TRADD complex ([1]; 100 nM YM254890 or 3 μM GF109203X 30 min, peptide 100 μM 30 min): effectively reversed PAR2 mediated disruption
- PKC isoform inhibition [9]: block both Ca^2+-dependent and some novel PKC isoforms
